Test results as given in BindingDB's records for doi:10.1016/s0960-894x(99)00632-0 (3-Dimensional Pharmaceuticals, 2000).

Test: Compound was evaluated for the inhibitory constant against human Serine protease chymotrypsin

Ki: 88 µM
SMILES: Cc1cc(OCCC=NNC(=N)N)cc(OS(=O)(=O)c2ccccc2OC(F)(F)F)c1 [3-[((3E)-3-{[(E)-amino(imino)methyl]hydrazono}propyl)oxy]-5-methylphenyl 2-(trifluoromethoxy)benzenesulfonate]
